Measurements: patent US11285135B2 (AMGEN INC., priority 2016, dated 2022)
Where two headings read alike, the source gives them in different places.

How the values were obtained:
[1] = target: GDP-bound protein (aa 1-169), containing both G12C and C118A amino acid substitutions (Homo sapiens, UniProt P01116, C118A/G12C); test: Coupled Nucleotide Exchange Assay (SOS-mediated nucleotide exchange, AlphaScreen); format: biochemical; conditions: 2 hours compound pre-incubation
Outline: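 His-tagged GDP-bound […] (aa 1-169, G12C/C118A) pre-incubated 2 h with compound titration in 25 mM HEPES pH 7.4, 10 mM MgCl2, 0.01% Triton X-100.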

[2] = test system: Phosphorylation of ERK½ in MIA PaCa-2 cells; test: Phospho-ERK½ MSD Assay in MIA PaCa-2 cells; format: cell-based; conditions: 4 hours compound treatment, 10 ng/mL EGF for 10 min, read-out: p-ERK IC50 (MIA PaCa-2)
Outline: (§1)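 MIA PaCa-2 or A549 cells (25,000/well, RPMI with 10% FBS) exposed to compound titration for 4 h at 37 °C, then stimulated with 10 ng/mL EGF for 10 min and lysed in RIPA. Phospho-ERK1/2 quantified by MSD whole-cell lysate immunoassay; IC50 from 4-parameter logistic fit.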

[3] = test system: Phosphorylation of ERK½ in A549 cells; test: Phospho-ERK½ MSD Assay in A549 cells; format: cell-based; conditions: 4 hours compound treatment, 10 ng/mL EGF for 10 min, read-out: p-ERK IC50 (A549)
Outline: as §1

[4] = Homo sapiens, MIA PaCa-2, MIA PaCa-2 cells

GDP-bound protein (aa 1-169), containing both G12C and C118A amino acid substitutions, sequence (P01116 1-169 isoform P01116-2 G12C/C118A): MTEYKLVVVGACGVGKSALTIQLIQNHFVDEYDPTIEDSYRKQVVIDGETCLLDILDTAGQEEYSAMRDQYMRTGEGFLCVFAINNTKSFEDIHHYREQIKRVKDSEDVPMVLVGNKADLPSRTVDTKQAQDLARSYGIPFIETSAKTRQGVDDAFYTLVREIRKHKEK

SMILES | Coupled exchange IC50 [1] | IC50 ([2]; MIA PaCa-2 cells) | IC50 ([3]; A549 cells) | IC50 [2, 4] | IC50 ([3]; Homo sapiens, A549, A549 cells)
C=CC(=O)N1CCN(c2nc(=O)n(-c3ccccc3C(C)C)c3cc(-c4c(O)cccc4F)c(Cl)cc23)CC1 (single isomer, unassigned) [Example 8-1-2, 6-Chloro-7-(2-fluoro-6-hydroxyphenyl)-1-(2-(2-propanyl)phenyl)-4-(4-(2-propenoyl)-1-piperazinyl)-2(1H)-quinazolinone] | 0.322 µM | 0.811 µM | > 100 µM |  | 
C=CC(=O)N1CCN(c2snc3c(F)c(-c4cc(O)cc5ccccc45)c(Cl)cc23)C[C@H]1C [Example 5-7, 1-((2R)-4-(5-chloro-7-fluoro-6-(3-hydroxy-1-naphthalenyl)-2,1-benzothiazol-3-yl)-2-methyl-1-piperazinyl)-2-propen-1-one] | 0.815 µM |  |  | 3.79 µM | > 100 µM
C=CC(=O)N1CCN(c2snc3c(F)c(-c4c(C)ccc5[nH]ncc45)c(Cl)cc23)[C@H](C(F)F)C1 (racemic) [Example 2-8, 1-(4-(5-chloro-7-fluoro-6-(5-methyl-1H-indazol-4-yl)-2,1-benzothiazol-3-yl)-3-(difluoromethyl)-1-piperazinyl)-2-propen-1-one] | 0.361 µM |  |  | 0.258 µM | > 100 µM
C=CC(=O)N1CCN(c2snc3c(F)c(-c4cc(N)ccc4C)c(Cl)cc23)CC1 [Example 3-12, 1-(4-(6-(5-amino-2-methylphenyl)-5-chloro-7-fluoro-2,1-benzothiazol-3-yl)-1-piperazinyl)-2-propen-1-one] | 2.56 µM |  |  | 7.66 µM | > 100 µM
C=CC(=O)N1CCN(c2snc3nc(-c4c(O)cccc4F)c(Cl)cc23)[C@@H](C)C1 (racemic) [Example 2-3, 1-(4-(5-chloro-6-(2-fluoro-6-hydroxyphenyl)[1,2]thiazo[3,4-b]pyridin-3-yl)-3-methyl-1-piperazinyl)-2-propen-1-one] | 4.05 µM |  |  | 6.53 µM | > 100 µM
C=CC(=O)N1CCN(c2snc3nc(-c4cc(O)cc5ccccc45)c(Cl)cc23)C(C)C1 (single isomer, unassigned) [Example 2-5-1, 1-((3S)-4-(5-chloro-6-(3-hydroxy-1-naphthalenyl) [1,2]thiazolo[3,4-b]pyridin-3-yl)-3-methyl-1-piperazinyl)-2-propen-1-one or 1-((3R)-4-(5-chloro-6-(3-hydroxy-1-naphthalenyl) [1,2]thiazolo[3,4-b]pyridin-3-yl)-3-methyl-1-piperazinyl)-2-propen-1-one] | 0.308 µM | 1.14 µM | > 100 µM |  | 
C=CC(=O)N1CCN(c2snc3c(F)c(-c4cccc5ccccc45)c(Cl)cc23)CC1 [Example 3-23, 1-(4-(5-chloro-7-fluoro-6-(naphthalen-1-yl)benzo[c]isothiazol-3-yl)piperazin-1-yl)prop-2-en-1-one] | 4.65 µM |  |  | 13.6 µM | > 100 µM
C=CC(=O)N1CCN(c2snc3nc(-c4c(C)ccc5[nH]ncc45)c(Cl)cc23)C(C)C1 (racemic) [Example 2-6, 1-(4-(5-chloro-6-(5-methyl-1H-indazol-4-yl)[1,2]thiazolo[3,4-b]pyridin-3-yl)-3-methyl-1-piperazinyl)-2-propen-1-one] | 1.59 µM |  |  | 2.97 µM | 3.7 µM
C=CC(=O)N1CCN(c2nnc(Nc3ccccc3)c3cc(-c4c(O)cccc4F)c(Cl)cc23)CC1 [Example 13, 1-(4-(4-Anilino-7-chloro-6-(2-fluoro-6-hydroxyphenyl)-1-phthalazinyl)-1-piperazinyl)-2-propen-1-one] | 5.20 µM |  |  | > 100 µM | > 100 µM
C=CC(=O)N1CCN(c2snc3c(F)c(-c4cc(OC)ccc4Cl)c(Cl)cc23)CC1 [Example 3-9, 1-(4-(5-chloro-6-(2-chloro-5-methoxyphenyl)-7-fluoro-2,1-benzothiazol-3-yl)-1-piperazinyl)-2-propen-1-one] | 3.37 µM |  |  | 9.25 µM | > 33.3 µM
C=CC(=O)N1CCN(c2nnc(-c3ccccc3C(C)C)c3cc(-c4c(O)cccc4F)c(C)nc23)CC1 [Example 27, 1-(4-(3-(2-Fluoro-6-hydroxyphenyl)-2-methyl-5-(2-(2-propanyl)phenyl)pyrido[2,3-d]pyridazin-8-yl)-1-piperazinyl)-2-propen-1-one] | 1.78 µM |  |  | 12.8 µM | > 33.3 µM
C=CC(=O)N1CCN(c2snc3c(F)c(-c4cc(O)cc(Cl)c4Cl)c(Cl)cc23)CC1 [Example 3-22, 1-(4-(5-chloro-6-(2,3-dichloro-5-hydroxyphenyl)-7-fluoro-2,1-benzothiazol-3-yl)-1-piperazinyl)-2-propen-1-one] | 0.249 µM |  |  | 1.12 µM | > 33.3 µM
C=CC(=O)N1CCN(c2snc3c(F)c(-c4cc(N)ccc4Cl)c(Cl)cc23)CC1 [Example 3-19, 1-(4-(6-(5-amino-2-chlorophenyl)-5-chloro-7-fluoro-2,1-benzothiazol-3-yl)-1-piperazinyl)-2-propen-1-one] | 0.954 µM |  |  | 2.03 µM | > 33.3 µM
C=CC(=O)N1CCN(c2nc(=O)n(CC3CC3)c3nc(-c4c(O)cccc4F)c(Cl)cc23)CC1 [Example 38, 6-chloro-1-(cyclopropylmethyl)-7-(2-fluoro-6-hydroxyphenyl)-4-(4-(2-propenoyl)-1-piperazinyl)pyrido[2,3-d]pyrimidin-2(1H)-one] | 0.484 µM |  |  | 1.39 µM | > 33.3 µM
C=CC(=O)N1CCN(c2nnc(-c3ccccc3C(C)C)c3cc(-c4c(O)cccc4F)c(Cl)cc23)CC1 [Example 10-4, 1-(4-(7-chloro-6-(2-fluoro-6-hydroxyphenyl)-4-(2-(2-propanyl)phenyl)-1-phthalazinyl)-1-piperazinyl)-2-propen-1-one] | 0.235 µM |  |  | 3.47 µM | > 100 µM
C=CC(=O)N1CC(Nc2snc3c(F)c(-c4cc(O)cc5ccccc45)c(Cl)cc23)C1 [Example 1-20, 1-(3-((5-chloro-7-fluoro-6-(3-hydroxy-1-naphthalenyl)-2,1-benzothiazol-3-yl)amino)-1-azetidinyl)-2-propen-1-one] | 0.683 µM |  |  | 4.99 µM | > 100 µM

The remaining lines, values ahead:

Coupled exchange IC50 [1] | IC50 ([2]; MIA PaCa-2 cells) | IC50 ([3]; A549 cells) | IC50 [2, 4] | IC50 ([3]; Homo sapiens, A549, A549 cells) | SMILES
0.533 µM |  |  | 9.2 µM | > 100 µM | C=CC(=O)N1CCN(c2nnc(-c3c(C)cccc3C)c3cc(-c4c(O)cccc4F)c(Cl)cc23)CC1 [Example 10-7, 1-(4-(7-Chloro-4-(2,6-dimethylphenyl)-6-(2-fluoro-6-hydroxyphenyl)-1-phthalazinyl)-1-piperazinyl)-2-propen-1-one]
1.20 µM |  |  | 6.07 µM | > 100 µM | C=CC(=O)N1CCN(c2nnc(-c3cnccc3C)c3cc(-c4c(O)cccc4F)c(Cl)cc23)CC1 [Example 10-6, 1-(4-(7-chloro-6-(2-fluoro-6-hydroxyphenyl)-4-(4-methyl-3-pyridinyl)-1-phthalazinyl)-1-piperazinyl)-2-propen-1-one]
0.542 µM | 0.211 µM |  |  | 62.3 µM | C=CC(=O)N1CCN(c2nc(=O)n(-c3ccccc3C(C)C)c3cc(-c4c(O)cccc4F)c(Cl)cc23)CC1 [Example 8-1, 6-Chloro-7-(2-fluoro-6-hydroxyphenyl)-1-(2-(2-propanyl)phenyl)-4-(4-(2-propenoyl)-1-piperazanyl)-2(1H)-quinazolinone]
0.359 µM |  |  | 6.85 µM | > 100 µM | C=CC(=O)N1CCN(c2nnc(-c3ccccc3C3CC3)c3cc(-c4c(O)cccc4F)c(Cl)cc23)CC1 [Example 10-10, 1-(4-(7-chloro-4-(2-cyclopropylphenyl)-6-(2-fluoro-6-hydroxyphenyl)-1-phthalazinyl)-1-piperazinyl)-2-propen-1-one]
0.095 µM |  |  | 0.017 µM | > 33.3 µM | C=CC(=O)N1CCN(c2nc(=O)n(-c3c(CC)cccc3CC)c3nc(-c4c(O)cccc4F)c(Cl)cc23)[C@@H](C)C1 [Example 8-4, 6-chloro-1-(2,6-diethylphenyl)-7-(2-fluoro-6-hydroxyphenyl)-4-((2S)-2-methyl-4-(2 propenoyl)-1-piperazinyl)pyrido[2,3-d]pyrimidin-2(1H)-one]
0.198 µM |  |  | 0.023 µM | 13 µM | C=CC(=O)N1CCN(c2nc(=O)n(-c3ccccc3C(C)CC)c3cc(-c4cc(O)cc5ccccc45)c(Cl)cc23)CC1 (racemic) [Example 9-4, 1-(2-(2-butanyl)phenyl)-6-chloro-7-(3-hydroxy-1-naphthalenyl)-4-(4-(2-propenoyl)-1-piperazinyl)-2(1H)-quinazolinone]
0.400 µM |  |  | 2.41 µM | > 100 µM | C=CC(=O)N1CCN(c2nc(=O)n(-c3cnccc3C3CC3)c3cc(-c4c(O)cccc4F)c(Cl)cc23)CC1 [Example 8-5, 6-chloro-1-(4-cyclopropyl-3-pyridinyl)-7-(2 fluoro-6-hydroxyphenyl)-4-(4-(2-propenoyl)-1-piperazinyl)-2(1H)-quinazolinone]
